What was measured:
[1] = PK studies of ITE in male nude mice (single dosing); type: in vivo; settings: for AUC / half-life: male, nude, mouse, plasma
Procedure: Male nude mice were also used in PK (pharmacokinetic) studies. For i.v. injection, ITE at 1 mg/kg b.w. was administered with DMSO as vehicle via tail vein. For i.p. Injection, ITE at 10, 40, and 80 mg/kg b.w. was delivered with DMSO via lower left abdominal quadrant. In p.o. injection, ITE at 40 and 80 mg/kg b.w. were administered with a vehicle of Labrasol:PEG 400 (2:8, v/v) via oral gavage. Every 15 mice were given a single injection at each dosing level and every 3 of the dosed mice were used to collect blood sample at each time point (0, 0.083, 0.25, 0.5, 1, 2, 4, 8, 24 hr.). Animals were rotated to be sampled twice each but the duration between the two sampling times was at least 110 min. The animal was anesthetized under Isoflurane and restrained manually. Approximately 150 μl of whole blood at each time point is collected (via retro-orbital puncture) into a K2-EDTA tube. Blood samples were put on ice and processed to plasma (4,000 g, 5 min, 4° C.) within 15 min post sampling. Plasma samples were stored at −80° C. until analysis. An aliquot of 20 μl plasma sample was added with 20 μl of an internal standard (Glipizide, 500 ng/ml in ΔCN, for extraction efficiency) to 120 μl of ΔCN (acetonitrile). The mixture was vortexed at 1,500 rpm for 2 min. and then centrifuged at 12,000 rpm for 5 min. Five (5) μl of the supernatant was injected into an LC-MS/MS system (API 4000, Foster City, Calif., USA). A Gemini-C18 column (2.0×50 mm, 5 μm) was used and the LC (liquid chromatography) was run at a flow rate of 0.45 ml/min. with the following program: where Pump A was for 1 mM NH4OAc (ammonium acetate) in water plus 0.025% FA (formic acid) whereas Pump B for 1 mM NH4OAC in acetonitrile plus 0.025% FA. The negative ionization process of the mass spectrometry was operated at an APCI (Atmospheric Pressure Chemical Ionization) mode while the detection at a MRM (Multiple Reaction Monitoring) mode. ITE was identified by recognizing an LC retention time of 2.5 min. and two mass peaks at 285.0 (before collision) and 142.0 m/z (after collision) while the internal standard of 2.35 min. and two mass peaks at 444.3 (before collision) and 319.3 m/z (after collision). ITE was quantified by a standard curve generated every time by a series of known quantities of ITE running through both the extraction/precipitation process after mixing with mouse plasma and the LC-MS/MS system. The WinNonlin V5.2 statistics software (Pharsight Corporation, California, USA) was used to generate PK parameters such as Cmax, Tmax, T1/2, and AUC (Area under Curve) etc. using a non-compartmental model. Results

[2] = test system: human ovarian cancer cell line OVCAR-3 xenografts; experiment: OVCAR-3 xenograft growth inhibition in nude mice; type: in vivo; settings: 80 mg/kg i.p. once daily
Procedure: All the procedures related to animal handling, care, and the treatment in the study were performed following guidelines approved by an Institutional Animal Care and Use Committee (IACUC) of Crown Bioscience, Inc. (Santa Clara, Calif., USA, a contract research organization we hired) based on the guidance of the Association for Assessment and Accreditation of Laboratory Animal Care (AAALAC). Animals were checked for any effects of tumor growth and drug treatment on normal behavior such as mobility, food and water consumption, body weight gain/loss (gross body weights were measured twice weekly), eye/hair matting, and any other abnormal effect. Death and observed clinical signs were recorded on the basis of the number of animals within each group. Individual animals with a tumor volume exceeding 3,000 mm^3 or animals of a group with a mean tumor volume exceeding 2,000 mm^3 were euthanized. In addition, animals showing signs of severe distress and/or pain, dropping body weight more than 20% from that at the start of treatment, or losing the capability of accessing adequate food or water were humanely sacrificed.
Each mouse was inoculated subcutaneously at the right flank with the LNCaP cells (1×10^7) in 0.1 ml of PBS for tumor development. When a mean tumor volume reached around 150 mm^3, the tumor-bearing mice were divided into homogeneous blocks based on their tumor volumes followed by a randomization of mice in each block into treatment groups (thus minimizing variations in tumor response to treatments due to the differential in initial mean tumor volumes). Each treatment group was consisted of 8 tumor-bearing mice. Vehicle (DMSO) or ITE in the vehicle at specified doses were administered to the mice by either i.p. (intraperitoneal) or p.o. (oral) injection once or twice daily for 28 continuous days as indicated.
Tumor volume was measured twice weekly in two dimensions using a caliper and the volume was calculated with a formula of: V=0.5 a×b^2, where a and b are the long and short diameter (in mm) of a tumor, respectively. The tumor volume was then used for calculations of both TGI (Tumor Growth Inhibition) and TGD (Tumor Growth Delay). The TGI was determined by: TGI=ΔT/ΔC×100%, where ΔT was a difference between the mean tumor volume at a specified day of observation and that at the day treatment starts (day 1) for a drug treated group whereas ΔC was the same difference measured for the control group. The TGD was calculated as: TGD=T−C, where T was the time (in days) required for tumors in a drug treated group to reach a predetermined mean tumor volume and C the time (in days) in the control group to reach the same volume. A tumor weight was derived by equating 1,000 mm^3 in volume to 1,000 mg in weight. A net body weight was then derived by subtracting a tumor weight from a corresponding gross body weight with the tumor.
Summary statistics, including mean and the standard error of the mean (SEM), are provided for the tumor volume of each group at each time point. Statistical analysis of difference in tumor volume among groups was conducted on a data set either at the best therapeutic time point or at the final dosing day as indicated. The tumor volume data were log-transformed and evaluated using a one-way ANOVA followed by Tukey's test when significance was observed. All data were analyzed using SPSS 16.0 and p<0.05 was considered to be statistically significant.
The culture and inoculation of human prostate cancer cell line LNCaP were as described in Example 1. The manipulation for human liver cancer cell line HepG2 (ATCC) was similar as that for LNCaP except that DMEM (instead of RPMI-1640) medium was used, the L-glutamine was not used, and 2×10^6 cells were used for inoculation into female nude mice. The handling of human ovarian cancer cell line OVCAR-3 (ATCC) was the same as that of LNCaP except that the DMEM medium was used and 5×10^6 cells were used for inoculation into female nude mice. […]

[3] = iv, 1 mg/kg b.w. bolus i.v. in DMSO

Question: Which results are given for COC(=O)c1csc(C(=O)c2c[nH]c3ccccc23)n1 [ITE, 2-(1′H-indole-3′-carbonyl)-thiazole-4-carboxylic acid methyl ester]?
Answer: efficiency of absorption compared with i.v. injection ([1]; i.p. injection in DMSO): below 10%; AUC ([1]; ip, 10 mg/kg b.w. i.p. in DMSO): 0.197 µg·h/mL; half-life ([1]; ip, 10 mg/kg b.w. i.p. in DMSO): 1.13 h; AUC ([1]; ip, 40 mg/kg b.w. i.p. in DMSO): 0.332 µg·h/mL; half-life ([1]; ip, 40 mg/kg b.w. i.p. in DMSO): 1.61 h; AUC ([1]; ip, 80 mg/kg b.w. i.p. in DMSO): 0.499 µg·h/mL; half-life ([1]; ip, 80 mg/kg b.w. i.p. in DMSO): 5.17 h; AUC [1, 3]: 0.256 µg·h/mL; half-life [1, 3]: 0.1 h; AUC ([1]; po, 40 mg/kg b.w. p.o. in Labrasol:PEG 400 (2:8, v/v)): 0.107 µg·h/mL; AUC ([1]; po, 80 mg/kg b.w. p.o. in Labrasol:PEG 400 (2:8, v/v)): 0.097 µg·h/mL; absorption efficiency ([1]; p.o. in Labrasol:PEG 400 (2:8, v/v)): around 1%; net body weight loss [2]: no obvious net body weight loss; TGD (Tumor Growth Delay) ([2]; at a tumor volume of 800 mm^3): 10 days; TGI (Tumor Growth Inhibition) ([2]; day 33, TGI=ΔT/ΔC×100%): 47%
